Laboratory results as given in patent US10028992B2, “Methods of treating muscular dystrophy” (BOARD OF REGENTS OF THE NEVADA SYSTEM OF HIGHER EDUCATION …, priority 2012, dated 2018).
Blank lines part the entries; values can stand above or below the compound they belong to.

Test system: α7 integrin promoter
Assay: muscle cell-based assay: α7βgal+/− myoblasts/myotubes, LacZ reporter, β-galactosidase cleavage of FDG
Parameters: species or system mouse; Results in α7+/− β-galactosidase assay: scale not given here
Conditions: for Results in a α7+/− β-galactosidase assay, Myotubes, 0.5 uM: compound at 0.5 uM; for Results in a α7+/− β-galactosidase assay, Myotubes, 1 uM: compound at 1 uM; for Results in a α7+/− β-galactosidase assay, Myotubes, 5 uM: compound at 5 uM; for Results in a α7+/− β-galactosidase assay, Myotubes, 10 uM: compound at 10 uM; for Results in a α7+/− β-galactosidase assay, Myotubes, 20 uM: compound at 20 uM; for Results in a α7+/− β-galactosidase assay, Myotubes, 40 uM: compound at 40 uM; for Fit Curve Class: key not given; for AC50: read-out: Fit Log AC50 (converted); for Emax: read-out: Max Response [%]
How it was run: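 Primary α7βgal+/− mouse myoblasts (LacZ knocked into α7 integrin exon 1, promoter retained), differentiated; promoter activity read as β-galactosidase conversion of non-fluorescent FDG to fluorescein. Hits followed by dose-response, western analysis and myostatin counterscreen.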

[1] = Table 12, fitted activity at zero concentration
[2] = Table 12 Compound data, concentration-response curve fit
[3] = Mus musculus, Table 12, log of AC50, given with negative sign, unit of AC50 not given

Compound: c1ccc(-c2cn3c4c(sc3n2)CCCC4)cc1 [drawing 490]
Results in a α7+/− β-galactosidase assay, Myotubes, 0.5 uM (Myotubes): −0.06339
Results in a α7+/− β-galactosidase assay, Myotubes, 1 uM (Myotubes): 0.06029
Results in a α7+/− β-galactosidase assay, Myotubes, 5 uM (Myotubes): −0.3683
Results in a α7+/− β-galactosidase assay, Myotubes, 10 uM (Myotubes): −0.08198
Results in a α7+/− β-galactosidase assay, Myotubes, 20 uM (Myotubes): −0.09547
Results in a α7+/− β-galactosidase assay, Myotubes, 40 uM (Myotubes): 0.1666

Compound: CCN(CC)CCNC(=O)c1c(C)[nH]c(CC2C(=O)Nc3ccc(F)cc32)c1C (stereo not drawn) [drawing 515]
Results in α7+/− β-galactosidase assay (Myotubes, 0.5 uM): −0.04962
Results in α7+/− β-galactosidase assay (Myotubes, 1 uM): −0.02655
Results in α7+/− β-galactosidase assay (Myotubes, 5 uM): −0.4387
Results in α7+/− β-galactosidase assay (Myotubes, 10 uM): −1.86
Results in α7+/− β-galactosidase assay (Myotubes, 20 uM): −0.9178
Results in α7+/− β-galactosidase assay (Myotubes, 40 uM): 0.9191

Compound: CCOC(=O)c1cc(-c2cccs2)nc2c1c(C)nn2-c1ccccn1 [drawing 462]
Results in a α7+/− β-galactosidase assay, Myotubes, 0.5 uM (Myotubes): −0.07388
Results in a α7+/− β-galactosidase assay, Myotubes, 1 uM (Myotubes): −0.1286
Results in a α7+/− β-galactosidase assay, Myotubes, 5 uM (Myotubes): −0.1329
Results in a α7+/− β-galactosidase assay, Myotubes, 10 uM (Myotubes): −0.1516
Results in a α7+/− β-galactosidase assay, Myotubes, 20 uM (Myotubes): −0.2792
Results in a α7+/− β-galactosidase assay, Myotubes, 40 uM (Myotubes): −0.2792

Compound: O=[N+]([O-])c1ccc(Cl)cc1N/N=C/c1ccncc1 [Compound 112]
Fit HillSlope (Table 12, curve fit): 3.132
Fit Infinite Activity [%] (Table 12, fitted activity at infinite concentration): 74.0416%
Fit Zero Activity [%] [1]: 0.1229%
Fit Curve Class (Table 12): 2.2
Fit Log AC50 (Table 12, log of AC50, given with negative sign, unit of AC50 not given): −5.25
Score [2]: 43

Compound: Cc1ccsc1-c1nnc(S)n1C1CCCCC1 [drawing 621]
Results in α7+/− β-galactosidase assay (Myoblasts, 0.5 uM): 0.007736
Results in α7+/− β-galactosidase assay (Myoblasts, 1 uM): 0.002953
Results in α7+/− β-galactosidase assay (Myoblasts, 5 uM): 0.06001
Results in α7+/− β-galactosidase assay (Myoblasts, 10 uM): −0.06828
Results in α7+/− β-galactosidase assay (Myoblasts, 20 uM): −0.1538
Results in α7+/− β-galactosidase assay (Myoblasts, 40 uM): −0.1034

Compound: CCOC(=O)C1CCCN(C(=O)CNS(=O)(=O)c2ccc(Br)s2)C1 (stereo not drawn) [drawing 708]
Result in α7+/− β-galactosidase assay (Myoblasts, 0.5 uM): −0.01823
Result in α7+/− β-galactosidase assay (Myoblasts, 1 uM): 0.07424
Result in α7+/− β-galactosidase assay (Myoblasts, 5 uM): −0.1417
Result in α7+/− β-galactosidase assay (Myoblasts, 10 uM): −0.1278
Result in α7+/− β-galactosidase assay (Myoblasts, 20 uM): −0.1459
Result in α7+/− β-galactosidase assay (Myoblasts, 40 uM): −0.2189

Compound: Cc1cc(NC(=O)CCC(=O)N(Cc2cccnc2)C(C(=O)NC(C)(C)C)c2ccccc2Cl)no1 (stereo not drawn) [Compound 29]
AC50 [3]: 3.98 µM
Emax (Mus musculus): 54.9%
Fit HillSlope (Table 12, curve fit): 1.7885
Fit Zero Activity [%] [1]: −25.4387%
Fit Curve Class (Table 12): 1.1
Score [2]: 83

Compound: Cc1[nH]c(/C=C2\C(=O)Nc3ccc([S+](=O)([O-])Cc4c(Cl)cccc4Cl)cc32)c(C)c1C(=O)C1CCCN1CN1CCCC1 (stereo not drawn) [drawing 517]
Results in α7+/− β-galactosidase assay (Myotubes, 0.5 uM): −0.02882
Results in α7+/− β-galactosidase assay (Myotubes, 1 uM): −0.08557
Results in α7+/− β-galactosidase assay (Myotubes, 5 uM): 0.02824
Results in α7+/− β-galactosidase assay (Myotubes, 10 uM): −0.2838
Results in α7+/− β-galactosidase assay (Myotubes, 20 uM): −0.348
Results in α7+/− β-galactosidase assay (Myotubes, 40 uM): −0.7868

Compound: CCOc1cc(C)c(S(=O)(=O)N2CCCCC2)cc1C [drawing 679]
Results in α7+/− β-galactosidase assay (Myoblasts, 0.5 uM): 0.1137
Results in α7+/− β-galactosidase assay (Myoblasts, 1 uM): 0.2418
Results in α7+/− β-galactosidase assay (Myoblasts, 5 uM): 0.02032
Results in α7+/− β-galactosidase assay (Myoblasts, 10 uM): −0.02723
Results in α7+/− β-galactosidase assay (Myoblasts, 20 uM): 0.1874
Results in α7+/− β-galactosidase assay (Myoblasts, 40 uM): 0.2404

Compound: CCOC(=O)C1(Cc2cccc(Cl)c2)CCCN(C(=O)CCSC)C1 (stereo not drawn) [drawing 396]
Results in a α7+/− β-galactosidase assay, Myotubes, 0.5 uM (Myotubes): −0.05788
Results in a α7+/− β-galactosidase assay, Myotubes, 1 uM (Myotubes): 0.02732
Results in a α7+/− β-galactosidase assay, Myotubes, 5 uM (Myotubes): −0.3174
Results in a α7+/− β-galactosidase assay, Myotubes, 10 uM (Myotubes): −0.211
Results in a α7+/− β-galactosidase assay, Myotubes, 20 uM (Myotubes): −0.1814
Results in a α7+/− β-galactosidase assay, Myotubes, 40 uM (Myotubes): −0.4242

Compound: CCOc1ccc2nc(Cl)sc2c1 [drawing 370]
Results in a α7+/− β-galactosidase assay, Myotubes, 0.5 uM (Myotubes): −0.00103
Results in a α7+/− β-galactosidase assay, Myotubes, 1 uM (Myotubes): 0.001963
Results in a α7+/− β-galactosidase assay, Myotubes, 5 uM (Myotubes): −0.02718
Results in a α7+/− β-galactosidase assay, Myotubes, 10 uM (Myotubes): −0.04332
Results in a α7+/− β-galactosidase assay, Myotubes, 20 uM (Myotubes): −0.1345
Results in a α7+/− β-galactosidase assay, Myotubes, 40 uM (Myotubes): −0.219

Compound: CC(=O)Nc1ccc(NC(=O)c2cc(=O)c3cc(C)cc(C)c3o2)cc1 [drawing 388]
Results in a α7+/− β-galactosidase assay, Myotubes, 0.5 uM (Myotubes): −0.05012
Results in a α7+/− β-galactosidase assay, Myotubes, 1 uM (Myotubes): −0.03106
Results in a α7+/− β-galactosidase assay, Myotubes, 5 uM (Myotubes): −0.1165
Results in a α7+/− β-galactosidase assay, Myotubes, 10 uM (Myotubes): 0.3265
Results in a α7+/− β-galactosidase assay, Myotubes, 20 uM (Myotubes): −0.3385
Results in a α7+/− β-galactosidase assay, Myotubes, 40 uM (Myotubes): −0.2657

Compound: CC1(C)Cc2c(c(N3CCOCC3)nc3sc(C(=O)Nc4ccccc4)c(N)c23)CO1 [drawing 538]
Results in α7+/− β-galactosidase assay (Myoblasts, 0.5 uM): 0.2085
Results in α7+/− β-galactosidase assay (Myoblasts, 1 uM): 0.2916
Results in α7+/− β-galactosidase assay (Myoblasts, 5 uM): −0.3961
Results in α7+/− β-galactosidase assay (Myoblasts, 10 uM): −0.7131
Results in α7+/− β-galactosidase assay (Myoblasts, 20 uM): −0.4322
Results in α7+/− β-galactosidase assay (Myoblasts, 40 uM): −0.3536

EC50 (Mus musculus, given as log AC50 (negative values), read-out: Fit LogAC50 (converted)): 10 µM
Compound: O=C(Nc1ccc(Oc2cccnc2)cc1)c1ccccc1Cl [Compound 215]
Score (Table 12 compound data): 42
Fit Curve Class (curve class number): 2.1
Fit HillSlope (curve fit): 2.1211
Fit Zero Activity [%] (curve fit, activity at zero concentration): 13.9023%

Compound: Cc1cccc(OCc2nc(C#N)c(N3CCCC3)o2)c1 [Compound 2]
Activity at 7.660 μM [%] ** (7.660 μM): 175.022%
AC50 [3]: 3.55 µM
Emax (Mus musculus): 223%
Fit HillSlope (Table 12, curve fit): 1.4163
Fit Zero Activity [%] [1]: 3.1995%
Fit Curve Class (Table 12): 1.1
Score [2]: 91
